# In PubChem BioAssay (NCI):
#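 All cell lines were grown in 96-well plates and treated with compound for 48 hours. Definition used: TGI = concentration required for complete inhibition of growth.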
# What was measured:
# Assay in all cases: NCI tumour cell line growth inhibition, 48 h
# NCI-H522 lung = test system: NCI-H522 lung
# NCI-H23 lung = test system: NCI-H23 lung
# SN12C renal = test system: SN12C renal
# TK-10 renal = test system: TK-10 renal
# UACC-257 melanoma = test system: UACC-257 melanoma
# CAKI-1 renal = test system: CAKI-1 renal
# HOP-62 NSCLC = test system: HOP-62 NSCLC
# MALME-3M melanoma = test system: MALME-3M melanoma
# BT-549 breast = test system: BT-549 breast
# 786-0 renal = test system: 786-0 renal
# SF-539 CNS = test system: SF-539 CNS
# UACC-62 melanoma = test system: UACC-62 melanoma
# OVCAR-3 ovarian = test system: OVCAR-3 ovarian
# DU-145 prostate = test system: DU-145 prostate
# MDA-MB-435 = test system: MDA-MB-435
# CCRF-CEM leukemia = test system: CCRF-CEM leukemia
# SF-295 CNS = test system: SF-295 CNS
# MDA-N = test system: MDA-N
# HOP-92 NSCLC = test system: HOP-92 NSCLC
# T-47D breast = test system: T-47D breast
SMILES,TGI (NCI-H522 lung) [µM],TGI (NCI-H23 lung) [µM],TGI (SN12C renal) [µM],TGI (TK-10 renal) [µM],TGI (UACC-257 melanoma) [µM],TGI (CAKI-1 renal) [µM],TGI (HOP-62 NSCLC) [µM],TGI (MALME-3M melanoma) [µM],TGI (BT-549 breast) [µM],TGI (786-0 renal) [µM],TGI (SF-539 CNS) [µM],TGI (UACC-62 melanoma) [µM],TGI (OVCAR-3 ovarian) [µM],TGI (DU-145 prostate) [µM],TGI (MDA-MB-435) [µM],TGI (CCRF-CEM leukemia) [µM],TGI (SF-295 CNS) [µM],TGI (MDA-N) [µM],TGI (HOP-92 NSCLC) [µM],TGI (T-47D breast) [µM]
Cn1c2ccccc2c2nc3ccccc3c(Cl)c21,> 100,> 100,> 100,> 100,> 100,> 100,> 100,> 100,> 100,> 100,> 100,> 100,> 100,> 100,> 100,> 100,> 100,–,–,–
O=C1/C(=C/c2ccccc2)CCc2ccccc21,–,45.8,56.1,29.2,31.4,32.7,34.4,31.9,29.7,34.7,31.3,36.7,30.2,37,28.2,18.3,34,32.2,–,–
CCc1cccc(CC)c1NC(=O)C1=C(C)NC(C)=C(C(=O)Nc2c(CC)cccc2CC)C1c1ccc2c(c1)OCO2,27.2,32.8,28.7,> 100,35.1,52,37.2,29.7,–,29.9,37.8,25.6,27.2,–,–,20.3,29.2,–,32.1,–
CN(NC(=O)/C(=C\c1ccco1)NC(=O)c1ccccc1)c1cn[nH]c(=O)c1Cl,89.3,> 100,> 100,> 100,> 100,> 100,> 100,> 100,–,> 100,62,> 100,> 100,> 100,> 100,62.4,> 100,–,> 100,–
COc1ccc(CCNC(=O)CCc2ccccc2CO)cc1OC,> 100,> 100,> 100,> 100,> 100,> 100,> 100,–,> 100,> 100,> 100,> 100,> 100,> 100,> 100,> 100,> 100,–,> 100,> 100
CSc1nc2c(c(O)c(C)c(=O)n2C2OCC(OC(C)=O)C(OC(C)=O)C2OC(C)=O)c(=O)n1C (centres undefined),> 100,> 100,> 100,> 100,> 100,> 100,> 100,> 100,–,> 100,> 100,> 100,> 100,–,–,> 100,> 100,–,> 100,–
CC(=O)N/N=C1/CC[C@@]2(C)C(=CC[C@H]3C4CCC(C(C)CCCC(C)C)[C@@]4(C)CCC32)C1(C)C (some centres undefined),> 100,> 100,> 100,> 100,> 100,> 100,> 100,> 100,> 100,> 100,–,> 100,> 100,> 100,> 100,> 100,> 100,–,> 100,> 100
CCN(CC)Cc1cc(Nc2c3ccccc3nc3c4ccccc4n(C)c23)ccc1O,6.39,30.3,27.5,28.2,23.3,26,24.3,27,–,14,10.9,17.2,–,–,–,6.44,21.8,–,18.9,–
Cc1nc2c(n1CCN(C)C)C(=O)c1ccccc1C2=O,18.5,24.5,35.8,> 100,27.1,–,78.7,8.06,–,> 100,46.3,25.8,20,–,–,47.1,30.9,–,–,–
CC1C=C[C@H](Sc2ccccc2)CC[C@@]1(C)O (some centres undefined),–,> 100,> 100,> 100,> 100,> 100,> 100,> 100,–,> 100,> 100,> 100,–,–,–,> 100,–,–,> 100,–
Cn1nc2ccc3nccc(N(CCO)CCO)c3c2n1,> 100,> 100,> 100,> 100,> 100,> 100,> 100,> 100,–,> 100,> 100,> 100,> 100,–,–,> 100,> 100,–,> 100,–
CC1(C)CCC[C@]2(C)[C@@H]1CC[C@@]13O[C@@H]1C1=C(CO)C(=O)OC1=C[C@@H]23,24.7,46.5,25.9,55.5,71.2,34.2,49.3,23.7,51,27.3,–,40.7,–,39.7,61.5,–,44.9,–,37,–
CN(/N=C\c1ccc2ccccc2c1)C1=NCCN1,32,> 100,–,28.5,29.5,27.4,40.7,29.7,29.9,47.4,32.8,38.8,99.6,> 100,30.1,65,30.4,–,9.02,75.9
CCC1(N=[N+]=[N-])C(=O)c2ccccc2N(c2ccccc2)C1=O (centres undefined),> 100,> 100,> 100,> 100,> 100,> 100,> 100,> 100,–,> 100,> 100,> 100,> 100,–,–,> 100,> 100,–,> 100,–
CC(=O)NC(CCCNC(=O)NCCCl)C(=O)NCc1ccccc1 (centres undefined),> 100,> 100,> 100,> 100,> 100,> 100,> 100,> 100,–,> 100,> 100,> 100,> 100,–,–,> 100,> 100,–,> 100,–
O=C(Cn1c2ccc(Br)cc2c2nc3ccccc3nc21)N/N=C/c1ccccc1,–,> 100,> 100,> 100,> 100,> 100,97.9,–,> 100,94.8,53.6,> 100,> 100,> 100,> 100,–,84.8,–,–,> 100
COC(=O)CCc1cccnc1/C=N/O,> 100,> 100,> 100,> 100,> 100,> 100,> 100,> 100,–,> 100,> 100,> 100,> 100,–,–,> 100,> 100,–,> 100,–
COc1cc(C)c(C)c(OC(=O)c2c(C)c(C)c(OC)c(C)c2OC)c1C,4.71,52.9,> 100,> 100,78.6,79.6,> 100,65.7,–,53.4,38.6,> 100,7.15,–,–,62,38.6,–,53.9,–
O=[N+]([O-])C(=C(Nc1ccccc1)Nc1ccccc1)/C(Cl)=C(\Cl)Br,8.72,29.1,26.6,–,27.8,–,55.1,37.1,60.5,31.2,46,–,19.4,31.1,–,6.44,29.5,–,33.6,44.8
S=C1N=C(Cl)/C(=C\c2ccco2)N1,> 100,> 100,> 100,> 100,> 100,> 100,> 100,> 100,> 100,> 100,> 100,> 100,> 100,> 100,> 100,> 100,> 100,–,> 100,> 100
CCCCCCCCCCCCn1[nH]c(C)c(C(=S)SCCCCCCCC)c1=O,> 100,> 100,> 100,> 100,> 100,> 100,> 100,> 100,–,> 100,> 100,64.6,> 100,–,–,> 78.3,> 100,–,> 100,–
COc1ccc(N2C(=O)[C@@H]3[C@H](C2=O)c2[nH]c4ccccc4c2C2CCC(C(C)(C)C)C[C@@H]23)cc1 (some centres undefined),62.7,66.4,37.5,74.6,> 100,> 68.9,32.9,> 85,–,31.1,62.6,49.4,> 75.7,–,–,43.7,29.4,–,–,–
CCCCNC(=O)CCN(C(=O)O)S(=O)(=O)c1ccc(NC(=O)c2ccccc2)cc1,> 100,> 100,> 100,> 100,> 100,> 100,> 100,> 100,–,29.7,> 100,> 100,> 100,–,–,> 100,> 100,–,> 100,–
CC(C)(Oc1ccc2c(=O)cc(-c3ccccc3)oc2c1)C(=O)Nc1c(Cl)cccc1Cl,> 100,> 100,–,> 100,> 100,> 100,> 100,> 100,–,> 100,> 100,> 100,> 100,–,–,> 100,> 100,–,> 100,–
Cc1sc(N)c(S(=O)(=O)c2ccccc2)c1C,> 100,> 100,> 100,> 100,> 100,> 100,–,> 100,> 100,> 100,71,> 100,> 100,> 100,> 100,> 100,> 100,–,> 100,> 100
Brc1ccc2c(c1)C1C(CO2)C(c2ccccc2)=NN1c1ccccc1 (centres undefined),–,> 100,–,> 100,> 100,–,> 100,> 100,–,> 100,–,–,> 100,–,–,> 100,> 100,–,> 100,–
COC(=O)c1ccccc1NC(=O)C(=O)CC(=O)CC(c1ccccc1)c1c(O)c2ccccc2oc1=O (centres undefined),> 100,> 100,> 100,> 100,> 100,> 100,> 100,> 100,–,> 100,> 100,> 100,> 100,–,–,> 100,> 100,–,–,–
C/C(CC(=O)NC1=CC=C(NC(=O)C/C(C)=N\Nc2ccccc2)CC1)=N/Nc1ccccc1,> 100,> 100,> 100,> 100,> 100,> 100,> 100,> 100,–,> 100,> 100,> 100,> 100,–,–,> 100,> 100,–,> 100,–
CCCC(=O)Oc1ccc2c(C)cc(=O)oc2c1OC(=O)CCC,–,> 100,> 100,> 100,> 100,–,> 100,> 100,–,> 100,> 100,> 100,> 100,> 100,> 100,> 100,> 100,> 100,99.6,–
